The results in this text go back to article doi:10.1101/2024.05.02.592243v1, “Vestibular Modulation by Stimulant Derivatives in a Pentameric Ligand-Gated Ion Channel” (biorxiv, 2024).

Test [1] concerns the target T1, sTeLIC (endosymbiont of Tevnia jerichonana, UniProt G2FID1).
T1 sequence (G2FID1 1-320): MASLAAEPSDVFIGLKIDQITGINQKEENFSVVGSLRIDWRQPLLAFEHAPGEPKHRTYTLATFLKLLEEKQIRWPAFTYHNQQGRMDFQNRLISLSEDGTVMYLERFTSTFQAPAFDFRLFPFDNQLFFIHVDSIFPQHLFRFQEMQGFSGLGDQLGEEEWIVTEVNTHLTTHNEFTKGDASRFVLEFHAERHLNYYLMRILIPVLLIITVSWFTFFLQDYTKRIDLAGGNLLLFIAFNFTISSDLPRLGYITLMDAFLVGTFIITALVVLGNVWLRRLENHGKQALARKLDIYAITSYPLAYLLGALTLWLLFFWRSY
Put plainly: two-electrode voltage clamp, Xenopus laevis oocytes. The class given is cell-based. Set-up: gene TevJSym_bc00020; homopentamer (C5); oocyte rows: sTeLIC cDNA in vector pMT3, Xenopus laevis oocytes. Particulars: pH 8.5 (~EC20), 30-s coapplication, -40 mV.

For test [2], the target named is T1, sTeLIC. Put plainly: X-ray co-crystal structure, […] A, anomalous Br signal. The class given is binding. Set-up: gene TevJSym_bc00020; homopentamer (C5); oocyte rows: sTeLIC cDNA in vector pMT3, Xenopus laevis oocytes; structures: N-terminal MBP fusion (pET20b, E. coli C43(DE3)), MBP cut off with thrombin. To be noted: pH 8.0, DDM/NDG detergent, 3 mM ligand; vestibular site, open state.

The target in test [3] is T1, sTeLIC. Put plainly: cryo-EM structure. The class given is binding. Set-up: gene TevJSym_bc00020; homopentamer (C5); oocyte rows: sTeLIC cDNA in vector pMT3, Xenopus laevis oocytes; structures: N-terminal MBP fusion (pET20b, E. coli C43(DE3)), MBP cut off with thrombin. To be noted: pH 7.5, saposin nanodisc, 2 mM FFC-8; density in vestibular site, open state.

Consider `C[C@H](N)Cc1ccc(Br)cc1` [BrAmp], for which the “% modulation” value on sTeLIC [1] (positive allosteric modulator, vestibular site, up to 200 uM) is listed as “BrAmp showed positive modulatory effects similar to BrCA”. Also, the “X-ray co-crystal structure, 3.2 A, anomalous Br signal” value on sTeLIC [2] is on record as “Anomalous signal from the bromine atom of BrAmp allowed definitive placement in the vestibular pocket”.
For `C[N+](C)(C)CCOP(=O)([O-])OCCC(F)(F)C(F)(F)C(F)(F)C(F)(F)C(F)(F)C(F)(F)F` [FFC-8], the cryo-EM structure result on sTeLIC [3] was “This density could reasonably accommodate fluorinated fos-choline-8 (FFC-8)”. For the same molecule, the “% modulation” value at sTeLIC [1] (positive modulator, micromolar concentrations) is given as “micromolar concentrations of FFC-8 potentiated sTeLIC currents in oocytes”.
